{"source": "patent US12509451B2", "about": "“Heteroaryl amide inhibitors of CD38” (NAPA THERAPEUTICS LTD., priority 2020, dated 2025)", "key": {"CD38 [1]": {"molecular_target": "T1, CD38 (Mus musculus, UniProt P56528)", "T1 construct": "aged mice (male C57BL6/J, 22 months old) were fasted for 4 hr; from tissue; host or cells: C57BL6/J mice (aged, DIO obese or LPS-challenged); liver, spleen, plasma", "T1 sequence (P56528 1-304)": "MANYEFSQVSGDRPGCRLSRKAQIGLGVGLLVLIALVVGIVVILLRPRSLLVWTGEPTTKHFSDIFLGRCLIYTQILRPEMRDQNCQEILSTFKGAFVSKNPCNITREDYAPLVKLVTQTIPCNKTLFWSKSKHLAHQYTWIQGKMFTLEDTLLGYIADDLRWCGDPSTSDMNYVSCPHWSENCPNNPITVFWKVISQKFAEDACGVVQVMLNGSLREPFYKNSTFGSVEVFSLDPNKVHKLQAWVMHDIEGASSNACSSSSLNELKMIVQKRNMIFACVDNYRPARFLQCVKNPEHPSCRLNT", "assay": "In vivo efficacy against CD38 in obese mice, chronic oral administration 49 days, liver NAD+ metabolites", "details": "10 mg/kg BID oral, 4 hr post-dosing", "experimental": "The in vivo efficacy of Compound 32 against the human CD38 enzyme was tested in obese mice after oral administration and determined by mass spec (MS) analysis of NAD+ metabolites levels in liver tissue. The two main CD38 substrates, NAD+ and NMN, and the 2 main byproducts of the CD38 enzymatic reaction, NAM and ADPR, were measured.\nObese mice (male DIO C57BL6/J, 65 weeks old) treated for 49 days with compound 32 via oral gavage at a concentration of 10 mg/kg BID. On day 49, mice were humanely euthanized for liver tissue harvesting at 4 hr post-dosing. A vehicle control (1% Methylcellulose) was included to assess baseline NAD+ metabolites levels.\n(§1) The procedure for tissue sample preparation and UPLC-MS/MS methods were adapted from Trammell et al. (2013) Compu. Struct. Biotechnol. J. […] (https://www.ncbi.nlm.nih.gov/pmc/articles/PMC3962138/). Frozen liver tissue was pulverized and resuspended in the extraction buffer (3:1 ethanol:10 mM aq. HEPES, pH 7.1). The samples were vortexed, sonicated briefly in a bath sonicator, and shaken at 55° C. for 3 min at 1,200 rpm. Samples were then centrifuged at 16,000×g for 10 min at 4° C., and the supernatant was dried by speedvac. The dried pellet was resuspended in 97% 10 mM ammonium acetate/3% acetonitrile, centrifuged at 16,000×g for 10 min at 4° C. and 2 μL was injected for LCMS analysis.\n(§2) The UPLC-MS/MS analysis to measure NAD+ metabolites was performed using a Vanquish UHPLC system and a Q Exactive Orbitrap mass spectrometer with H-ESI ion source both from Thermo Scientific. UPLC separation was performed on a Hypercarb (2.1×100 mm, 5 μm particle size, Thermo) column following the method described in Trammell et al. (2013). Acquisition was carried out in positive ion, Parallel Reaction Monitoring (PRM) mode and targeted […] (t-SIM). The Thermo Xcalibur QualBrowser system (version 4.2.47) and Freestyle (version 1.8.51.0) softwares was used for the data processing. For relative fold change, peak areas were normalized with respective internal standards, normalized to weight of the tissue sample used, and calculated as fold change relative at 0 h timepoint/vehicle group.\nThe in vivo efficacy of Compound 39 against the human CD38 enzyme was tested in obese mice after oral administration and determined by mass spec analysis of NAD+ metabolites levels in liver tissue. The two main CD38 substrates, NAD+ and NMN, and the 2 main byproducts of the CD38 enzymatic reaction, NAM and ADPR, were measured.\nObese mice (male DIO C57BL6/J, 65 weeks old) treated for 49 days with compound 39 via oral gavage at a concentration of 10 mg/kg BID. On day 49, mice were humanely euthanized for liver tissue harvesting at 4 hr post-dosing. A vehicle control (1% Methylcellulose) was included to assess baseline NAD+ metabolites levels."}, "CD38 [2]": {"molecular_target": "T1, CD38", "assay": "In vivo efficacy against CD38 in aged mice, BID for 5 days, liver NAD+ metabolites", "details": "3 hr post-dosing", "experimental": "The in vivo efficacy of Compound 32 against the human CD38 enzyme was tested in aged mice after oral administration and determined by mass spec (MS) analysis of NAD+ metabolites levels in liver tissue. The two main CD38 substrates, NAD+ and NMN, and the 2 main byproducts of the CD38 enzymatic reaction, NAM and ADPR, were measured.\nCompound 32 was administered to aged mice (male DIO C57BL6/J, 19-22 months old) via oral gavage at a concentration of 3 mg/kg and 10 mg/kg BID for 5 days. At day 5, mice were humanely euthanized for liver tissue harvesting 3 hr post-dosing. A vehicle control (DMSO: Solutol HS 15: 80% Captisol (20% in water)(5:15:80 v/v)) was included to assess baseline NAD+ metabolites levels.\nas §1, §2\nThe in vivo efficacy of Compound 39 against the human CD38 enzyme was tested in aged mice after oral administration and determined by mass spec analysis of NAD+ metabolites levels in liver tissue. The two main CD38 substrates, NAD+ and NMN, and the 2 main byproducts of the CD38 enzymatic reaction, NAM and ADPR, were measured.\nCompound 39 was administered to aged mice (male DIO C57BL6/J, 19-22 months old) via oral gavage at a concentration of 10 mg/kg BID for 5 days. At day 5, mice were humanely euthanized for liver tissue harvesting 3 hr post-dosing. A vehicle control (DMSO: Solutol HS 15: 80% Captisol (20% in water)(5:15:80 v/v)) was included to assess baseline NAD+ metabolites levels."}}}
{"smiles": "O=C(Nc1ccnc(C(F)(F)F)c1)c1cc(OC2CC2)cc(-n2ccnc2)n1", "note": "[Compound 32, 4-cyclopropoxy-6-(1H-imidazol-1-yl)-N-(2-(trifluoromethyl)pyridin-4-yl)picolinamide]", "values": [{"measurement": "ADPR levels in liver", "setting": "CD38 [1]", "result": "significantly decrease"}, {"measurement": "NAM levels in liver", "setting": "CD38 [1]", "result": "significantly decrease"}, {"measurement": "ADPR levels in liver", "setting": "CD38 [2]; 3 mg/kg and 10 mg/kg BID oral", "result": "decrease"}, {"measurement": "NAD+ levels in liver", "setting": "CD38 [2]; 3 mg/kg and 10 mg/kg BID oral", "result": "significantly increase"}, {"measurement": "NAM levels in liver", "setting": "CD38 [2]; 3 mg/kg and 10 mg/kg BID oral", "result": "decrease"}, {"measurement": "NMN levels in liver", "setting": "CD38 [2]; 3 mg/kg and 10 mg/kg BID oral", "result": "significantly increase"}]}
{"smiles": "COCCOc1cc(C(=O)Nc2ccnc(C(F)(F)F)c2)nc(-n2ccnc2)n1", "note": "[Compound 39, 2-(1H-imidazol-1-yl)-6-(2-methoxyethoxy)-N-(2-(trifluoromethyl)pyridin-4-yl)pyrimidine-4-carboxamide]", "values": [{"measurement": "ADPR levels in liver", "setting": "CD38 [1]", "result": "decrease"}, {"measurement": "NAD+ levels in liver", "setting": "CD38 [1]", "result": "significantly increase"}, {"measurement": "NAM levels in liver", "setting": "CD38 [1]", "result": "decrease"}, {"measurement": "NMN levels in liver", "setting": "CD38 [1]", "result": "significantly increase"}, {"measurement": "ADPR levels in liver", "setting": "CD38 [2]; 10 mg/kg BID oral", "result": "decrease"}, {"measurement": "NAD+ levels in liver", "setting": "CD38 [2]; 10 mg/kg BID oral", "result": "increase"}, {"measurement": "NAM levels in liver", "setting": "CD38 [2]; 10 mg/kg BID oral", "result": "decrease"}]}
